Experimental data from patent US20240262833A1, “FUSED HETEROCYCLIC DERIVATIVES AS NEGATIVE ALLOSTERIC MODULATORS OF MGLU7 RECEPTOR” (Addex Pharma S.A., priority 2021, published 2024).

Columns and labels:
[1] = molecular target: T1, human metabotropic glutamate 7 receptor (hmGlu7) (Homo sapiens, UniProt Q14831); test: mGlu7 assay on HEK-expressing human mGlu7: fluorescent cell based Ca2+ mobilization assay (FLIPR), inhibition of EC80 L-AP4 response; details: HEK-293 cells expressing hmGlu7; EC80 L-AP4 stimulation; mean of at least three independent experiments in duplicate; read-out: Ca2+ Flux (mean IC50)
T1 construct: expressed in transfected cells
In short: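 HEK293 cells stably expressing hmGlu7 with a calcium-redirecting G protein were Fluo4-AM-loaded and assayed at pH 7.4 in HEPES buffer. Compounds were monitored for 180 s for agonism, then cells were challenged with EC80 L-AP4 for 110 s. IC50 was obtained from four-parameter fits, as the mean of ≥3 experiments run in duplicate.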

T1 sequence (Q14831 35-922 isoform Q14831-2): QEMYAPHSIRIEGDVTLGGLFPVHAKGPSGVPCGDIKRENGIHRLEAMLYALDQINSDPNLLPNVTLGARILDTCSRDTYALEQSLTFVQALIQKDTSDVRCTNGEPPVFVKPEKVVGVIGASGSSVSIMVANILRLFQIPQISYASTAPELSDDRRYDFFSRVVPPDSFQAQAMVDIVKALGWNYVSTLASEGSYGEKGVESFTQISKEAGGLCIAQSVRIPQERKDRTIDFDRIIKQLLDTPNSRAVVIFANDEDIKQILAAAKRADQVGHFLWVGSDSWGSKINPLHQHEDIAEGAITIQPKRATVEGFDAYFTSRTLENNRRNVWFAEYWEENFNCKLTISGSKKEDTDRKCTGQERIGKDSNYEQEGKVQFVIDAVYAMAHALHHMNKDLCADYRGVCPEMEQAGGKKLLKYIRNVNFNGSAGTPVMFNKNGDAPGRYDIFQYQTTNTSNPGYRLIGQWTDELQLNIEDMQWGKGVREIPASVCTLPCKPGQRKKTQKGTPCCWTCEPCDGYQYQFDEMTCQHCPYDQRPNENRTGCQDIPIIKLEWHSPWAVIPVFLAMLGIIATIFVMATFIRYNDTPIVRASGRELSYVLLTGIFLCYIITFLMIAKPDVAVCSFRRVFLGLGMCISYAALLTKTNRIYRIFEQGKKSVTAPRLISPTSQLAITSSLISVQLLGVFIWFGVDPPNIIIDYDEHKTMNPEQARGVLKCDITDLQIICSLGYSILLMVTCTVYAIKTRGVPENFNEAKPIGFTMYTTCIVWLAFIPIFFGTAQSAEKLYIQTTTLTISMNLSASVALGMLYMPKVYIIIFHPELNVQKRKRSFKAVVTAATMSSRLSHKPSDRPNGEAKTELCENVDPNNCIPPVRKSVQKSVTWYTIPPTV

Compound | melting point [°C] | IC50 [1] [nM]
COc1cccc(-n2c(C)c3cnn(-c4ccccc4)c(=O)c3c2C)c1 [1-26, 6-(3-Methoxyphenyl)-5,7-dimethyl-2-phenyl-2,6-dihydro-1H-pyrrolo[3,4-d]pyridazin-1-one] | 213 to 215 | < 100
COc1cccc(-n2c(C)c3cnn(-c4ccc(C(C)O)cc4)c(=O)c3c2C)c1 (stereo not drawn) [1-138, 2-(4-(1-Hydroxyethyl)phenyl)-6-(3-methoxyphenyl)-5,7-dimethyl-2,6-dihydro-1H-pyrrolo[3,4-d]pyridazin-1-one] | 192 to 195 | < 100
Cc1c2cnn(-c3ccccn3)c(=O)c2c(C)n1-c1cccc(-c2ccccc2)c1 [1-76, 6-([1,1′-Biphenyl]-3-yl)-5,7-dimethyl-2-(pyridin-2-yl)-2,6-dihydro-1H-pyrrolo[3,4-d]pyridazin-1-one] | 106 to 109 | 100 to 1000
COc1cccc(-n2c(C)c3cnn(-c4ccc(O)nc4)c(=O)c3c2C)c1 [1-131, 2-(6-Hydroxypyridin-3-yl)-6-(3-methoxyphenyl)-5,7-dimethyl-2,6-dihydro-1H-pyrrolo[3,4-d]pyridazin-1-one] | 207 to 209 | 100 to 1000
COc1cccc(-n2c(C)c3cnn(-c4ccc(C#N)cc4)c(=O)c3c2C)c1 [1-126] | 97 to 99 | 100 to 1000
COCCNc1cccc(-n2c(C)c3cnn(-c4ccccc4)c(=O)c3c2C)c1 [1-43, 6-(3-(2-Methoxyethylamino)phenyl)-5,7-dimethyl-2-phenyl-2,6-dihydro-1H-pyrrolo[3,4-d]pyridazin-1-one] | 116 to 119 | 100 to 1000
COc1cccc(-n2c(C)c3cnn(-c4ccc(CN)cc4)c(=O)c3c2C)c1 [1-88, 2-(4-(Aminomethyl)phenyl)-6-(3-methoxyphenyl)-5,7-dimethyl-2,6-dihydro-1H-pyrrolo[3,4-d]pyridazin-1-one] | 145 to 155 | 100 to 1000
CNCc1ccc(-n2ncc3c(C)n(-c4cccc(OC)c4)c(C)c3c2=O)cc1 [1-109, 6-(3-Methoxyphenyl)-5,7-dimethyl-2-(4-((methylamino)methyl)phenyl)-2,6-dihydro-1H-pyrrolo[3,4-d]pyridazin-1-one] | 150 to 154 | 100 to 1000
Cc1c2cnn(-c3ccccn3)c(=O)c2c(C)n1-c1cccc(-n2nccn2)c1 [1-199, 6-(3-(2H-1,2,3-Triazol-2-yl)phenyl)-5,7-dimethyl-2-(pyridin-2-yl)-2,6-dihydro-1H-pyrrolo[3,4-d]pyridazin-1-one] | 173 | 100 to 1000
CCN(CC)c1cccc(-n2c(C)c3cnn(-c4ccccn4)c(=O)c3c2C)c1 [1-100, 6-(3-(Diethylamino)phenyl)-5,7-dimethyl-2-(pyridin-2-yl)-2,6-dihydro-1H-pyrrolo[3,4-d]pyridazin-1-one] | < 85 | 100 to 1000
Cc1c2cnn(-c3ncccn3)c(=O)c2c(C)n1-c1cccc(OC2CC2)c1Cl [1-215, 6-(2-Chloro-3-cyclopropoxyphenyl)-5,7-dimethyl-2-(pyrimidin-2-yl)-2,6-dihydro-1H-pyrrolo[3,4-d]pyridazin-1-one] | 228 | < 100
Cc1c2cnn(-c3ccccc3F)c(=O)c2c(C)n1-c1ccccc1 [1-21, 2-(2-Fluorophenyl)-5,7-dimethyl-6-phenyl-2,6-dihydro-1H-pyrrolo [3,4-d]pyridazin-1-one] | 226 | 100 to 1000
COc1cccc(-n2c(C)c3cnn(-c4ccc(C(C)(C)O)cc4)c(=O)c3c2C)c1 [1-135, 2-(4-(2-Hydroxypropan-2-yl)phenyl)-6-(3-methoxyphenyl)-5,7-dimethyl-2,6-dihydro-1H-pyrrolo[3,4-d]pyridazin-1-one] | 103 to 108 | < 100
Cc1c2cnn(-c3ccccc3)c(=O)c2c(C)n1-c1cccc(O)c1 [1-51, 6-(3-Hydroxyphenyl)-5,7-dimethyl-2-phenyl-2,6-dihydro-1H-pyrrolo[3,4-d]pyridazin-1-one] | 252 to 254 | 1000 to 10000
COc1cccc(-n2c(C)c3cnn(-c4cc(OC)ccn4)c(=O)c3c2C)c1 [1-123] | 95 to 97 | 1000 to 10000
CCOC(=O)c1cccc(-n2c(C)c3cnn(-c4ccccn4)c(=O)c3c2C)c1 [1-133] | 86 to 90 | 100 to 1000

Compound | melting point [°C] | IC50 [1] [nM]
COc1ccccc1-n1ncc2c(C)n(-c3ccc(C)cc3)c(C)c2c1=O [1-2, 2-(2-Methoxyphenyl)-5,7-dimethyl-6-p-tolyl-2,6-dihydro-1H-pyrrolo[3,4-d]pyridazin-1-one] | 202 | 100 to 1000
Cc1c2cnn(-c3ccccc3)c(=O)c2c(C)n1-c1cccc(N2CCCC2)c1 [1-101, 5,7-Dimethyl-2-phenyl-6-(3-(pyrrolidin-1-yl)phenyl)-2,6-dihydro-1H-pyrrolo[3,4-d]pyridazin-1-one] | 228 to 229 | 100 to 1000
O=c1c2cn(-c3cccc(N4CCC4)c3)cc2cnn1-c1ccccn1 [1-188, 6-(3-(Azetidin-1-yl)phenyl)-2-(pyridin-2-yl)-2,6-dihydro-1H-pyrrolo[3,4-d]pyridazin-1-one] | 190 to 192 | 1000 to 10000
Cc1c2cnn(-c3ccc(C(N)=O)cc3)c(=O)c2c(C)n1-c1ccccc1 [1-57] |  | 100 to 1000
Cc1c2cnn(-c3ccc(N4CCNCC4)cc3)c(=O)c2c(C)n1-c1cccc(N2CCC2)c1 [1-174] |  | < 100
Cc1ccc(-n2c(C)c3cnn(-c4ccccc4)c(=O)c3c2C)cc1 [1-1] |  | < 100
Cc1c2cnn(-c3ccc(CCF)cc3)c(=O)c2c(C)n1-c1cccc(N2CCC2)c1 [1-189, 6-(3-(Azetidin-1-yl)phenyl)-2-(4-(2-fluoroethyl)phenyl)-5,7-dimethyl-2,6-dihydro-1H-pyrrolo[3,4-d]pyridazin-1-one] |  | < 100
COc1cccc(-n2c(C)c3cnn(-c4cccc(C(C)=O)c4)c(=O)c3c2C)c1 [1-147] |  | 100 to 1000
Cc1c2cnn(-c3ccc(S(=O)(=O)N(C)C)cc3)c(=O)c2c(C)n1-c1ccccc1 [1-87] |  | 100 to 1000
COc1ccc(-n2c(C)c3cnn(-c4cccc(C#N)c4)c(=O)c3c2C)cc1 [1-125] |  | 100 to 1000
CC(=O)c1cccc(-n2c(C)c3cnn(-c4ccccc4)c(=O)c3c2C)c1 [1-36, 6-(3-Acetylphenyl)-5,7-dimethyl-2-phenyl-2,6-dihydro-1H-pyrrolo [3,4-d]pyridazin-1-one] | 202 to 204 | 100 to 1000
Cc1c2cnn(-c3ccccc3)c(=O)c2c(C)n1-c1ccccc1 [1-4] |  | 100 to 1000
Cc1c2cnn(-c3ccccn3)c(=O)c2c(C)n1-c1cccc(N2CCC(C)(C)C2)c1 [1-179] |  | 100 to 1000
Cc1c2cnn(-c3ccccn3)c(=O)c2c(C)n1-c1cccc(C(F)(F)F)c1 [1-53] |  | 100 to 1000
Cc1c(O)cccc1-n1c(C)c2cnn(-c3ccc(N4CCOCC4)cc3)c(=O)c2c1C [1-220] |  | 1000 to 10000
